{"source": "patent US6403531B1", "about": "“Herbicidal synergistic composition and method of weed control” (Syngenta Crop Protection, inc., priority 1997, dated 2002)", "type_in_all_cases": "in vivo", "key": {"Sesbania [1]": {"tested_on": "Sesbania", "assay": "Post-emergence herbicidal action", "from_the_text": "(§1) A synergistic effect exists whenever the action of the active ingredient combination I and II, III, IV, V, VI, VII, VIII, IX or X is greater than the sum of the actions of the active ingredients applied individually. The herbicidal action to be expected, We, for a given combination of two herbicides can be calculated as follows (see COLBY, S. R. “Calculating synergistic and antagonistic response of herbicide combinations”. Weeds 15, pages 20-22; 1967):\n(§2) We=expected herbicidal action (% herbicidal action in comparison with untreated control) after treatment with the compounds of formula I and II, III, IV, V, VI, VII, VIII, IX or X at a rate of application of p+q kg of active ingredient per hectare.\n(§3) The test plants are raised in plastics pots under greenhouse conditions as far as the 2- to 3-leaf stage. A standard soil is used as the cultivation substrate. At the 2- to 3-leaf stage, the herbicides are applied individually and as mixtures to the test plants. The test compounds are applied in the form of an aqueous suspension in 500 l of water/ha. The rates of application depend on the optimum concentrations determined under field conditions and greenhouse conditions. Evaluation of the tests is made after 11 and 22 days (DAA=day after application) in % action. 100% denotes that the plants have died, 0% denotes no phytotoxic action."}, "Cassia sp.": {"tested_on": "Cassia sp.", "assay": "Post-emergence herbicidal action", "from_the_text": "as §1, §2, §3"}, "Abutilon [2]": {"tested_on": "Abutilon", "assay": "Pre-emergence herbicidal action", "from_the_text": "as §1, §2\n(§4) Monocotyledonous and dicotyledonous weeds and cultivated plants are sown in standard soil in plastics pots. Immediately after sowing, the test compounds are applied as an aqueous suspension (500 l of water/ha). The rates of application depend on the optimum concentrations determined under field conditions and greenhouse conditions. Evaluation of the tests is made after 15 and 27 days (DAA=day after application) in % action. 100% denotes that the plants have died, 0% denotes no phytotoxic action."}, "Sesbania [3]": {"tested_on": "Sesbania", "assay": "Pre-emergence herbicidal action", "from_the_text": "as §1, §2, §4"}, "Xanthium": {"tested_on": "Xanthium", "assay": "Pre-emergence herbicidal action", "from_the_text": "as §1, §2, §4"}, "cotton": {"tested_on": "cotton", "assay": "Pre-emergence herbicidal action (cultivated plant)", "from_the_text": "as §1, §2, §4"}, "Solanum nigrum": {"tested_on": "Solanum nigrum", "assay": "Herbicidal action", "conditions": "post-emergence"}, "Cyperus": {"tested_on": "Cyperus", "assay": "Herbicidal action"}, "Solanum": {"tested_on": "Solanum", "assay": "Post-emergence herbicidal action", "from_the_text": "as §1, §2, §3"}, "Digitaria": {"tested_on": "Digitaria", "assay": "Post-emergence herbicidal action", "from_the_text": "as §1, §2, §3"}, "Abutilon [4]": {"tested_on": "Abutilon", "assay": "Post-emergence herbicidal action", "from_the_text": "as §1, §2, §3"}, "Sorghum": {"tested_on": "Sorghum", "assay": "Post-emergence herbicidal action", "from_the_text": "as §1, §2, §3"}, "Sorghum hal.": {"tested_on": "Sorghum hal.", "assay": "Herbicidal action", "conditions": "titled pre-emergence (under Example B2)"}}}
{"smiles": "CCc1cccc(C)c1N(C(=O)CCl)[C@@H](C)COC", "note": "[α-metolachlor]", "values": [{"measurement": "herbicidal action on Sesbania", "setting": "Sesbania [1]; DAA 11, 250 g/ha", "result": 0, "unit": "%"}, {"measurement": "herbicidal action on Sesbania", "setting": "Sesbania [1]; DAA 11, 500 g/ha", "result": 0, "unit": "%"}, {"measurement": "herbicidal action on Sesbania", "setting": "Sesbania [1]; DAA 11, 1000 g/ha", "result": 0, "unit": "%"}, {"measurement": "herbicidal action on Cassia sp.", "setting": "Cassia sp.; DAA 11, 250 g/ha", "result": 0, "unit": "%"}, {"measurement": "herbicidal action on Cassia sp.", "setting": "Cassia sp.; DAA 11, 500 g/ha", "result": 0, "unit": "%"}, {"measurement": "herbicidal action on Cassia sp.", "setting": "Cassia sp.; DAA 11, 1000 g/ha", "result": 0, "unit": "%"}]}
{"smiles": "CNc1cnn(-c2cccc(C(F)(F)F)c2)c(=O)c1Cl", "note": "[norflurazon]", "values": [{"measurement": "herbicidal action on Abutilon", "setting": "Abutilon [2]; DAA 27, 250 g/ha", "result": 60, "unit": "%"}, {"measurement": "herbicidal action on Abutilon", "setting": "Abutilon [2]; DAA 27, 500 g/ha", "result": 60, "unit": "%"}, {"measurement": "herbicidal action on Sesbania", "setting": "Sesbania [3]; DAA 27, 250 g/ha", "result": 10, "unit": "%"}, {"measurement": "herbicidal action on Sesbania", "setting": "Sesbania [3]; DAA 27, 500 g/ha", "result": 30, "unit": "%"}, {"measurement": "herbicidal action on Xanthium", "setting": "Xanthium; DAA 27, 250 g/ha", "result": 10, "unit": "%"}, {"measurement": "herbicidal action on Xanthium", "setting": "Xanthium; DAA 27, 500 g/ha", "result": 35, "unit": "%"}, {"measurement": "herbicidal action on cotton (damage)", "setting": "cotton; DAA 27, 250 g/ha", "result": 0, "unit": "%"}, {"measurement": "herbicidal action on cotton (damage)", "setting": "cotton; DAA 27, 500 g/ha", "result": 0, "unit": "%"}]}
{"smiles": "COc1cc(OC)nc(Sc2cccc(Cl)c2C(=O)[O-])n1.[Na+]", "note": "[pyrithiobac, pyrithiobac-sodium]", "values": [{"measurement": "herbicidal action on Cassia sp.", "setting": "Cassia sp.; DAA 11, 25 g/ha", "result": 50, "unit": "%"}, {"measurement": "herbicidal action on Cassia sp.", "setting": "Cassia sp.; DAA 11, 50 g/ha", "result": 80, "unit": "%"}, {"measurement": "herbicidal action on Cassia sp.", "setting": "Cassia sp.; DAA 11, 100 g/ha", "result": 70, "unit": "%"}]}
{"smiles": "CC1(C)CON(Cc2ccccc2Cl)C1=O", "note": "[clomazone]", "values": [{"measurement": "herbicidal action on Xanthium", "setting": "Xanthium; DAA 15, 125 g/ha", "result": 10, "unit": "%"}, {"measurement": "herbicidal action on Xanthium", "setting": "Xanthium; DAA 15, 250 g/ha", "result": 25, "unit": "%"}, {"measurement": "herbicidal action on Xanthium", "setting": "Xanthium; DAA 15, 500 g/ha", "result": 60, "unit": "%"}]}
{"smiles": "CSc1nc(NC(C)C)nc(NC(C)C)n1", "note": "[prometryn]", "values": [{"measurement": "herbicidal action on Sesbania", "setting": "Sesbania [3]; DAA 15, 250 g/ha", "result": 10, "unit": "%"}, {"measurement": "herbicidal action on Xanthium", "setting": "Xanthium; DAA 15, 250 g/ha", "result": 0, "unit": "%"}, {"measurement": "herbicidal action on Solanum nigrum", "setting": "Solanum nigrum; DAA 22, 250 g/ha", "result": 0, "unit": "%"}, {"measurement": "herbicidal action on Solanum nigrum", "setting": "Solanum nigrum; DAA 22, 500 g/ha", "result": 0, "unit": "%"}, {"measurement": "herbicidal action on Solanum nigrum", "setting": "Solanum nigrum; DAA 22, 1000 g/ha", "result": 20, "unit": "%"}]}
{"smiles": "CN(C)C(=O)Nc1cccc(C(F)(F)F)c1", "note": "[fluometuron]", "values": [{"measurement": "herbicidal action on Cyperus", "setting": "Cyperus; titled pre-emergence (under Example B2), DAA 11, 250 g/ha", "result": 0, "unit": "%"}, {"measurement": "herbicidal action on Cyperus", "setting": "Cyperus; titled pre-emergence (under Example B2), DAA 11, 500 g/ha", "result": 25, "unit": "%"}, {"measurement": "herbicidal action on Cyperus", "setting": "Cyperus; titled pre-emergence (under Example B2), DAA 11, 1000 g/ha", "result": 20, "unit": "%"}]}
{"smiles": "N#Cc1cc(Br)c(O)c(Br)c1", "note": "[bromoxynil, bromoxinil]", "values": [{"measurement": "herbicidal action on Solanum", "setting": "Solanum; DAA 11, 500 g/ha", "result": 35, "unit": "%"}, {"measurement": "herbicidal action on Solanum", "setting": "Solanum; DAA 11, 1000 g/ha", "result": 40, "unit": "%"}]}
{"smiles": "COc1cc(OC)nc(NC(=O)NOS(=O)c2ncccc2OCC(F)(F)F)n1.[Na+]", "note": "(centres unmarked) [compound of formula I]", "values": [{"measurement": "herbicidal action on Abutilon", "setting": "Abutilon [2]; DAA 27, 3.75 g/ha", "result": 50, "unit": "%"}, {"measurement": "herbicidal action on Sesbania", "setting": "Sesbania [3]; DAA 15, 3.75 g/ha", "result": 35, "unit": "%"}, {"measurement": "herbicidal action on Sesbania", "setting": "Sesbania [3]; DAA 27, 3.75 g/ha", "result": 25, "unit": "%"}, {"measurement": "herbicidal action on Xanthium", "setting": "Xanthium; DAA 15, 3.75 g/ha", "result": 85, "unit": "%"}, {"measurement": "herbicidal action on Xanthium", "setting": "Xanthium; DAA 15, 7.5 g/ha", "result": 90, "unit": "%"}, {"measurement": "herbicidal action on Xanthium", "setting": "Xanthium; DAA 27, 3.75 g/ha", "result": 96, "unit": "%"}, {"measurement": "herbicidal action on cotton (damage)", "setting": "cotton; DAA 27, 3.75 g/ha", "result": 10, "unit": "%"}, {"measurement": "herbicidal action on Solanum", "setting": "Solanum; DAA 11, 7.5 g/ha", "result": 20, "unit": "%"}, {"measurement": "herbicidal action on Digitaria", "setting": "Digitaria; DAA 22, 1.88 g/ha", "result": 15, "unit": "%"}, {"measurement": "herbicidal action on Abutilon", "setting": "Abutilon [4]; DAA 22, 1.88 g/ha", "result": 55, "unit": "%"}, {"measurement": "herbicidal action on Sesbania", "setting": "Sesbania [1]; DAA 11, 1.88 g/ha", "result": 70, "unit": "%"}, {"measurement": "herbicidal action on Cassia sp.", "setting": "Cassia sp.; DAA 11, 1.88 g/ha", "result": 70, "unit": "%"}, {"measurement": "herbicidal action on Sorghum", "setting": "Sorghum; DAA 22, 1.88 g/ha", "result": 75, "unit": "%"}, {"measurement": "herbicidal action on Solanum nigrum", "setting": "Solanum nigrum; DAA 22, 1.88 g/ha", "result": 0, "unit": "%"}, {"measurement": "herbicidal action on Solanum nigrum", "setting": "Solanum nigrum; DAA 22, 3.75 g/ha", "result": 0, "unit": "%"}, {"measurement": "herbicidal action on Solanum nigrum", "setting": "Solanum nigrum; DAA 22, 7.5 g/ha", "result": 15, "unit": "%"}, {"measurement": "herbicidal action on Cyperus", "setting": "Cyperus; post-emergence, DAA 22, 1.88 g/ha", "result": 70, "unit": "%"}, {"measurement": "herbicidal action on Cyperus", "setting": "Cyperus; titled pre-emergence (under Example B2), DAA 11, 3.75 g/ha", "result": 50, "unit": "%"}, {"measurement": "herbicidal action on Sorghum hal.", "setting": "Sorghum hal.; DAA 22, 1.88 g/ha", "result": 75, "unit": "%"}]}
{"smiles": "CCC(CC)Nc1c([N+](=O)[O-])cc(C)c(C)c1[N+](=O)[O-]", "note": "[pendimethalin]", "values": [{"measurement": "herbicidal action on Xanthium", "setting": "Xanthium; DAA 15, 250 g/ha", "result": 0, "unit": "%"}, {"measurement": "herbicidal action on Xanthium", "setting": "Xanthium; DAA 15, 500 g/ha", "result": 0, "unit": "%"}, {"measurement": "herbicidal action on Xanthium", "setting": "Xanthium; DAA 15, 1000 g/ha", "result": 0, "unit": "%"}]}
{"smiles": "CCc1cccc(C)c1N(C(=O)CCl)C(C)COC", "note": "(centres unmarked) [metolachlor]", "values": [{"measurement": "herbicidal action on Sorghum hal.", "setting": "Sorghum hal.; DAA 22, 375 g/ha", "result": 0, "unit": "%"}, {"measurement": "herbicidal action on Sorghum hal.", "setting": "Sorghum hal.; DAA 22, 750 g/ha", "result": 0, "unit": "%"}, {"measurement": "herbicidal action on Sorghum hal.", "setting": "Sorghum hal.; DAA 22, 1500 g/ha", "result": 0, "unit": "%"}]}
{"smiles": "CP(=O)(O)CCC(N)C(=O)O", "note": "(centres unmarked) [glufosinate]", "values": [{"measurement": "herbicidal action on Digitaria", "setting": "Digitaria; DAA 22, 250 g/ha", "result": 75, "unit": "%"}, {"measurement": "herbicidal action on Abutilon", "setting": "Abutilon [4]; DAA 22, 250 g/ha", "result": 55, "unit": "%"}, {"measurement": "herbicidal action on Sorghum", "setting": "Sorghum; DAA 22, 250 g/ha", "result": 85, "unit": "%"}, {"measurement": "herbicidal action on Cyperus", "setting": "Cyperus; post-emergence, DAA 22, 250 g/ha", "result": 35, "unit": "%"}]}
